Assay results reported in patent US20100216761A1, “NOVEL AZETIDINONES USEFUL AS INHIBITORS OF ELASTASE” (priority 2007, published 2010).
Values joined by “and” are separate entries in the source; they are usually repeats but may differ in a detail not shown here. Identical values can stand only once.

What was measured:
[1] = Human liver microsome stability (Assays #1-#4); type: in vitro ADME; details: substrate 1 μM, 37° C.; for % Left Assay 3 @ 0 min / % Left Assay 3 @ 5 min / % Left Assay 3 @ 10 min / % Left Assay 3 @ 15 min / % Left Assay 3 @ 30 min / % Left Assay 3 @ 60 min / % Left @ 30 min / half-life at 1 μM: protein 0.1 mg/mL; for % Left (+NADPH) @ 0 min / % Left (+NADPH) @ 5 min / % Left (+NADPH) @ 10 min / % Left (+NADPH) @ 15 min / % Left (+NADPH) @ 30 min / % Left (+NADPH) @ 60 min / % Left (−NADPH) @ 0 min / % Left (−NADPH) @ 60 min: Assay #4, protein 1.0 mg/mL; for % Left (−NADPH) @ 0 min / % Left (−NADPH) @ 60 min: −NADPH control; for % Left @ 30 min / half-life at 1 μM: Assay #1; for half-life at 1 μM: human, liver microsomes
Description: The results for Examples 1 and 3 were t112=87 and 32 minutes with 78% and 60% remaining after 30 minutes, respectively, compared to shorter half-lives and lesser amounts left for Examples 2 and 4-6 (see Note 6 for conditions).
Under similar in vitro human liver microsome preparation stability assay conditions at 37° C. for 30 or 60 minutes in a separate head-to-head experiments (Assay #2 and #3) (see Note 6 for conditions) with Examples 1 and 3 and the comparator Compound #290 from U.S. Pat. No. 5,591,737, the amounts left after the 30 minute incubation (with […] microsome protein vs 0.1 mg/mL for Assay #3) were 67, 99 and 79% and for the 60 minute incubation were 94, 73 and 77%, respectively. Similarly, in a third repeat assay (Assay #4 with—NADPH controls) (see Note 6 for conditions), 90 and 72% were remaining for Example 1 and the comparator compound, respectively. […]
Note 6: Human Liver Microsome Assay # 1-3 conditions. • Assay experiment #1: Substrate concentration=1 μM; Protein concentration=0.1 mg/mL; incubation time=30 minutes at 37° C. • Assay experiment #2: Substrate concentration=1 μM; Protein concentration 0.1 mg/mL; incubation time=30 minutes at 37° C. • Assay experiment #3: Substrate concentration=1 μM; Protein concentration=0.1 mg/mL; incubation time=60 minutes at 37° C. • Assay experiment #4: Substrate concentration=1 μM; Protein concentration=1.0 mg/mL; incubation time=60 minutes at 37° C.

CYP3A4 = CYP3A4 (Homo sapiens, UniProt P08684)
Chain of CYP3A4 (P08684 whole entry): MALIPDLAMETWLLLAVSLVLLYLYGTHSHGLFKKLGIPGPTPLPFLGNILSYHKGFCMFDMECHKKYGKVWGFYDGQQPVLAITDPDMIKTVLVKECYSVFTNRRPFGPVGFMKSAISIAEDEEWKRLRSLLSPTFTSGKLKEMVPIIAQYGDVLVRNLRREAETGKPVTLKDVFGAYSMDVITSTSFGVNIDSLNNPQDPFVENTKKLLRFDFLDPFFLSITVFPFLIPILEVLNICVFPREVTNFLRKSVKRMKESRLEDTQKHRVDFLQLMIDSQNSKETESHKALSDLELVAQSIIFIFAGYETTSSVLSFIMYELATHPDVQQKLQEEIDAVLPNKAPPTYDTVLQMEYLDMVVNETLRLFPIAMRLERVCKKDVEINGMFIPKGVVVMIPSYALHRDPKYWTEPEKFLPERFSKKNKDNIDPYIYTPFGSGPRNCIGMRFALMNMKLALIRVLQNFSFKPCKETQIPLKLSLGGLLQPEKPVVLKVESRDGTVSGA
Description: This assay measured the pre-incubation time-dependent inhibition of potential CYP-3A4 inhibitors in human liver microsomes using the CYP-3A4 mediated testosterone 6-beta-hydroxylation formate in the presence of test compounds in a semi-automated screening using LC-MS/MS detection. Test compounds are pre-incubated at 37° C. with human liver microsomes (2.5 mg/mL protein) and a NADPH regenerating system for 10, 20, 30 and 40 minutes prior to a ten-fold dilution with a 250 μM solution of testosterone. The diluted reaction is then incubated for 15 minutes at 37° C. The concentration of 6-β-hydroxytestosterone metabolite formed is measured by LC-MS/MS using validated analytical methods. The percent activity remaining is calculated by comparing the amount of marker metabolite formed in the presence of inhibitor compared to no inhibitor control samples at corresponding time points. No inhibitor control samples represent the maximum amount of 6-β-hydroxytestosterone formed under these assay conditions.

[2] = biological target: T1, Human Leukocyte Elastase (HLE) (Homo sapiens, UniProt P08246); experiment: HLE time-dependent inactivation assay, purified elastase; type: biochemical; details: purified elastase 3 nM; inhibitor 26.5 nM; substrate 1 mM
T1 construct: The PMN lysates were prepared by isolating human neutrophils from whole blood; from tissue; host or cells: human neutrophils (PMN) isolated from whole blood, lysed by sonication in PBS
T1 sequence (P08246 30-267): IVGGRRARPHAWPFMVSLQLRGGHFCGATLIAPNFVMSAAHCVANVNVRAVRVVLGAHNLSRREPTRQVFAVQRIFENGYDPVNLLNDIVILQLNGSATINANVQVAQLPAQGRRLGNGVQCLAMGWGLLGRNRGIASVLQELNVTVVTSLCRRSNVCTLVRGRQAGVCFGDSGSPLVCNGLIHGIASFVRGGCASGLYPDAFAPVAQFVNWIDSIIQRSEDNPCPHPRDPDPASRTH
Description: As exemplified in Table 1, the Examples 1-6 of this application were determined to be potent, mechanism-based inactivators of Human Leukocyte Elastase (HLE) in two different in vitro time-dependent incubation assays. The two assays are described at the end of this Biological Data Section in Note 1. See the literature references in Note 2 for a discussion of the mechanism for this type of beta-lactam inactivation of HLE. Two sources of enzyme were used; either purified elastase or crude extracts of human polymorphonuclear leukocytes (PMN) containing elastase activity. […] For the compound of Example 1, the results were 638,000 M^−1 sec^−1 (average of n=3) and 809,000 M^−1 sec^−1 (n=4), respectively, and for Example 3, 804,000 M^−1 sec^−1 (average of n=4) and 952,000 M^−1 sec^−1 (n=5). […] Note that in this assay, head-to-head comparisons are particularly valuable.
Note 1: Enzyme Assays for the Inhibition of Human Polymorphonuclear Leukocyte Elastase Via Hydrolysis of N-Methyoxysuccinyl-alanyl-alanyl-prolylalanine-p-nitroanilide Reagent.
Prepare substrate by first dissolving in DMSO to 30 mg/ml (50 mM). Further dilute the substrate to 10 mM and add 25 μl to a final volume of 250 μl for a final concentration of 1 mM in the assay.
Prepare the enzyme in TES Buffer (0.045M TES (N-tris[hydroxymethyl]methyl-2-mino-ethanesulfonic acid), 0.45 M NaCl, pH 7.5.). Two sources of enzyme were used; either crude extracts of human polymorphonuclear leukocytes (PMN) containing elastase activity or purified elastase. The PMN lysates were prepared by isolating human neutrophils from whole blood after dextran sedimentation, ficoll density separation and red blood cell lysis. The neutrophils were lysed in PBS with sonciation and the concentration of active enzyme was determined by utilizing a standard curve of purified enzyme. For the purified elastase, the enzyme was resuspended at 10 mg/ml (˜340 μM) in 0.02M NaOAc, 50% glycerol. For both the PMN lysate and purified enzyme, a further dilution of enzyme was made to 30 nM and 25 μl was added to a final volume of 250 μl. The final concentration of enzyme in the assay was 3 nM.
The inhibitors to be tested were dissolved in DMSO at 10 mM. Directly before use, the inhibitors were further diluted into TES Buffer to 265 nM and […] was added to a final volume of 250 μl. The final concentration of inhibitor in the assay was 26.5 nM.
In a 96-well plate (flat bottom, polystyrene) 175 μl TES Buffer, 25 μl substrate, 25 μl inhibitor and 25 μl enzyme were added. After thoroughly mixing, the plate was then read in a spectrophotometer at 410 nm for 30 minutes counting every 10 seconds. Results were expressed as Kinact/Ki which is the second order rate constant in per mole per second for inactivation of the enzyme.

Compound | % Left Assay 2 @ 0 min [1] [%] | % Left Assay 2 @ 2.5 min [1] [%] | % Left Assay 2 @ 5 min [1] [%] | % Left Assay 2 @ 10 min [1] [%] | % Left Assay 2 @ 15 min [1] [%] | % Left Assay 2 @ 30 min [1] | % Left Assay 3 @ 0 min [1] [%] | % Left Assay 3 @ 5 min [1] [%] | % Left Assay 3 @ 10 min [1] [%] | % Left Assay 3 @ 15 min [1] [%] | % Left Assay 3 @ 30 min [1] [%] | % Left Assay 3 @ 60 min [1] | % Left (+NADPH) @ 0 min [1] [%] | % Left (+NADPH) @ 5 min [1] [%] | % Left (+NADPH) @ 10 min [1] [%] | % Left (+NADPH) @ 15 min [1] [%] | % Left (+NADPH) @ 30 min [1] [%] | % Left (+NADPH) @ 60 min [1] | P450 CYP-3A4 Time-Dependent Inhibition rate @ 10 μM (#1) (CYP3A4) [min⁻¹] | kinact/KI [2] [M⁻¹ s⁻¹] | further results
CCC[C@@H](NC(=O)N1C(=O)C(CC)(CC)[C@@H]1Oc1ccc(C(=O)N(C)CCN(C)C)cc1)c1ccc(OC)cc1 [Compound #290, reference compound] | 100 | 99 | 95 | 89 | 82 | 79% and 79 +/− 6% | 100 | 90 | 88 | 85 | 83 | 77% and 77 +/− 4% | 100 | 92 | 89 | 84 | 78 | 72% and 72 +/− 0% | 0.017 | 523000 | % Left (−NADPH) @ 0 min [1]: 89 +/− 5%; % Left (−NADPH) @ 60 min [1]: 83 +/− 1%; P450 CYP-3A4 Time-Dependent Inhibition rate @ 10 μM (#2) (CYP3A4): 0.008 min⁻¹; P450 CYP-3A4 Time-Dependent Inhibition rate @ 50 μM (CYP3A4): 0.018 min⁻¹
CCC[C@@H](NC(=O)N1C(=O)C(CC)(CC)[C@@H]1Oc1ccc(C(=O)N(CC)CCN(C)C)cc1)c1ccc(OC(F)(F)F)cc1 [Example 1, 2-(S)-[4-(((2-(Dimethylamino)ethyl)ethylamino)carbonyl)phenoxy]-3,3-diethyl-N-[1-(R)-(4-(trifluoromethoxy)phenyl)butyl]-4-oxo-1-azetidinecarboxamide] | 100 | 78 | 78 | 73 | 70 | 67% and 67 +/− 2% | 100 | 101 | 79 | 90 | 100 | 94% and 94 +/− 10% | 100 | 104 | 99 | 96 | 91 | 90% and 90 +/− 4% | 0.005 | 638000 | % Left @ 30 min [1]: 78%; % Left (−NADPH) @ 0 min [1]: 87 +/− 21%; % Left (−NADPH) @ 60 min [1]: 99 +/− 2%; half-life at 1 μM [1]: 87 min; P450 CYP-3A4 Time-Dependent Inhibition rate @ 10 μM (#2) (CYP3A4): 0.008 min⁻¹; P450 CYP-3A4 Time-Dependent Inhibition rate @ 50 μM (CYP3A4): 0.018 min⁻¹
CCC[C@@H](NC(=O)N1C(=O)C(CC)(CC)[C@@H]1Oc1ccc(C(=O)N(CC)CCN(C)C)cc1)c1ccc(C(F)(F)F)cc1 [Example 3, 2-(S)-[4-(((2-(Dimethylamino)ethyl)ethylamino)carbonyl)phenoxy]-3,3-diethyl-N-[1-(R)-(4-(trifluoromethyl)phenyl)butyl]-4-oxo-1-azetidinecarboxamide] | 100 | 107 | 85 | 82 | 82 | 99% and 79 +/− 7% | 100 | 86 | 81 | 75 | 75 | 73% and 73 +/− 0% | – | – | – | – | – | – | 0.014 | 804000 | % Left @ 30 min [1]: 60%; half-life at 1 μM [1]: 32 min
